In PubChem BioAssay AID1996:
In brackets after ≈: the same amount, converted by molar mass.

Details: buffer; pH 7.4; 200.0 µM

SMILES	solubility kinetic [µg/mL]
COc1ccc(C)cc1NC(=O)CSc1cccc[n+]1[O-]	> 45.7
C/C(CC1CC(C)(C)OC1=O)=N\NC(N)=S (stereo not given)	> 36.5
Cc1[nH]c2ccccc2c1/C=N/NC(=O)c1ccccc1	> 41.6
CN(Cc1ccccc1)C(=S)NC(=O)c1ccccc1	7.5 (≈ 26.4 µM)
Cc1ccc(CONC(=O)c2cccc(C)c2)cc1	38.2 (≈ 150 µM)
COC(=O)C1CCN(C(=O)COC(=O)c2ccc(N3CCCC3=O)cc2)CC1	> 58.3
COc1ccc(C2C(C(C)=O)=C(O)C(=O)N2c2ccccn2)cc1 (stereo not given)	> 48.7
CCC(C)NS(=O)(=O)c1ccc(NC(=O)c2cccs2)cc1 (stereo not given)	2.6 (≈ 7.68 µM)
CN(C)S(=O)(=O)Nc1cccc(-c2cn3c(n2)SCC3)c1	> 48.7
CN(C(=S)Nc1ccc(SC(F)F)cc1)c1ccc(O)cc1	> 51.1
O=C(CNc1ccccc1)Nc1cccc2ccccc12	3.4 (≈ 12.3 µM)
CCOP(=O)(OCC)C1NC(=O)N(c2ccccc2)C1=O (stereo not given)	> 46.8
CC(C)c1ccccc1OCCCN1CCCC1.O=C(O)C(=O)O	47
COC(=O)CSc1nc2sc3c(c2c(=O)[nH]1)CCC3	15.7 (≈ 53 µM)
Cc1ccc(S(=O)(=O)N2CCC(C(=O)NCC3CC3)CC2)cc1	31.7 (≈ 94.2 µM)
O=C(NC(O)C(=O)c1ccccc1)c1ccc(F)cc1 (stereo not given)	39.7 (≈ 145 µM)
Cc1cc2cc(CCNC(=O)CCCc3ccccc3)c(=O)[nH]c2cc1C	1.7 (≈ 4.69 µM)
COc1ccc(NC(=O)c2cc3ccccc3cc2OC)cc1	5.9 (≈ 19.2 µM)
CC(=O)c1ccc(OCCCC(=O)NCCc2ccccc2)cc1	38.8 (≈ 119 µM)
O=C(O)c1cc([N+](=O)[O-])ccc1NCCCc1ccccc1	> 45
Cc1ccc(CNCC(O)c2ccccc2)s1.Cl (stereo not given)	> 42.6
Cc1ccc(Cl)cc1NC(=O)C1CCCN(S(C)(=O)=O)C1 (stereo not given)	5.8 (≈ 17.5 µM)

SMILES	solubility kinetic [µg/mL]
CC1(C)C(C(=O)N2CCN(C(=O)c3ccccc3)CC2)C1(C)C	> 47.2
Cc1ccccc1OCC(=O)OCC(=O)NCc1ccccc1	> 47
COCCCNc1nc2nonc2nc1N1CCN2CCCC2C1 (stereo not given)	> 50
O=C(/C=C/c1ccccc1)Nc1cccnc1	> 33.6
O=C(COC(=O)C1CC1)Nc1ccc2[nH]c(=O)[nH]c2c1	> 41.3
COc1cc(C(=O)N2c3ccccc3CCC2C)cc(OC)c1OC (stereo not given)	32.8 (≈ 96.1 µM)
CCN(CC)C(=O)Oc1ccc(Cl)c2cccnc12	40.7 (≈ 146 µM)
O=C1CCN(Cc2nc(-c3ccc(Cl)cc3)no2)CCN1	> 46
CC(=O)c1c(C)[nH]c(C(=O)COC(=O)c2c(-c3ccccc3)noc2C)c1C	2.1 (≈ 5.52 µM)
CN1CCN(CCCCOc2cccc3ccccc23)CC1.Cl	> 50.2
Cc1ccc(NC(=O)CN2C(=O)NC3(CCCC3)C2=O)c(Cl)c1	> 50.4
COc1cc(OC)c(C(=O)NC23CC4CC(CC(C4)C2)C3)cc1OC	7.1 (≈ 20.6 µM)
Nc1nc(Cl)nc2ncn(Cc3ccccc3)c12	> 39
O=C(OCC(=O)c1ccc(Cl)cc1Cl)c1cnccn1	> 46.7
CN1c2ccccc2C(=O)NC1c1ccc([N+](=O)[O-])s1 (stereo not given)	31.2 (≈ 108 µM)
CC(=O)c1cccc(NC(=O)NCc2ccc3c(c2)OCO3)c1	9.2 (≈ 29.5 µM)
Cc1cccc(NC(=O)CCCN2C(=S)NC(C)(C)CC2C)c1C (stereo not given)	> 52.1
CCN(CC)S(=O)(=O)c1ccc(Cl)nc1	34.3 (≈ 138 µM)
Cc1c(C=O)c2ccccc2n1CCOc1ccccc1F	< 0.6
CCOC(=O)CC(=O)c1[nH]c(C)c(C(=O)OCC)c1C	14.3 (≈ 50.8 µM)
COc1ccccc1CC(=O)NC1CC1	29.6 (≈ 144 µM)
Cc1noc(C)c1C(=O)N1CCN(c2ccccc2O)CC1	44.9 (≈ 149 µM)

SMILES	solubility kinetic [µg/mL]
CCOCCN(C(=O)c1ccccc1Cl)c1ccccc1	41.1 (≈ 135 µM)
C[C@H](NC(=O)c1ccco1)C(=O)N1CCCC1	> 35.4
Cc1ccccc1C(=O)NCCCNC(=O)c1ccccn1	> 44.6
Cc1cc(C)c(S(=O)(=O)NCCCn2ccnc2)cc1C	> 46.1
CN1CCN(CCCN2c3ccccc3Sc3ccc(Cl)cc32)CC1.O=S(=O)(O)CCS(=O)(=O)O	73.3
N/C(CS(=O)(=O)c1ccccc1)=N\OC(=O)c1ccc(F)cc1	8.8 (≈ 26.2 µM)
Cc1nc2ccc(NC(=O)c3cc(Cl)ccn3)cc2s1	4.9 (≈ 16.1 µM)
CC(=O)N(C)Cc1ccc(C(=O)CSc2nnc(C3CC3)n2C2CC2)cc1	> 57.7
Cc1ccc(OCC(=O)O/N=C(\N)c2ccccn2)cc1	> 42.8
CCC(C(=O)NC1CCN(C)CC1)c1ccccc1 (stereo not given)	> 39.1
Cc1cc(=O)oc2cc(NC(=O)c3cccc(F)c3)ccc12	< 0.6
CCS(=O)(=O)c1ccc(O)c(NC(=O)CCCC(=O)O)c1	41.5 (≈ 132 µM)
O=C(NCc1ccccc1)c1cccn(Cc2ccccc2)c1=O	45.9 (≈ 144 µM)
CCCOc1ccc(N2C(=O)C/C(=C\c3ccccc3)C2=O)cc1	< 0.7
CN(c1ccccc1)S(=O)(=O)c1ccc2ccccc2c1	2.4 (≈ 8.07 µM)
c1ccc(-c2ccccc2OCCN2CCCC2)cc1	25 (≈ 93.5 µM)
CN1C(=O)C(O)(C2CCCCCC2=O)c2ccccc21 (stereo not given)	> 41
O=[N+]([O-])c1ccc(-c2cn3ccccc3n2)cc1	1.7 (≈ 7.11 µM)
O=C(OCC(=O)N1CCCC1)c1cccc(Br)c1	> 46.8
NS(=O)(=O)c1ccc(CCNC(=O)CN2C(=O)NC(c3ccccc3)(c3ccccc3)C2=O)cc1	> 73.9
COc1ccc(NS(=O)(=O)c2ccc(O)c([N+](=O)[O-])c2)cc1S(=O)(=O)N1CCCCC1	> 70.7
Cc1nc2ccccc2c(=O)n1CCc1ccc(O)cc1	> 42

SMILES	solubility kinetic [µg/mL]
Cc1cc(/C=C2\NC(=O)NC2=O)c(C)n1-c1cccnc1	40.2 (≈ 142 µM)
CCOC(=O)Cn1c(=O)n(Cc2ccccc2)c(=O)c2cccnc21	7.6 (≈ 22.4 µM)
O=C(c1cc(C(=O)N2CCCC2)cc([N+](=O)[O-])c1)N1CCCC1	> 47.6
ClCc1nc2ccccc2c2ccccc12	3.2 (≈ 14.1 µM)
Cc1nc(Nc2ccc(O)cc2)c2c3c(sc2n1)CCCC3	12.9 (≈ 41.4 µM)
C#CCN1CCN(c2ccc(F)cc2)CC1	30 (≈ 137 µM)
Cc1ccccc1OCC(=O)NCCNC(=O)c1ccncc1	> 47
CCOC(=O)C1=C(N)OC2=C(C(=O)CCC2)C12C(=O)N(C)c1ccccc12 (stereo not given)	29.1 (≈ 79 µM)
COc1ccccc1NC(=O)COC(=O)C1CCCC1	> 41.6
O=C(c1ccccc1F)N1CCN(C(=O)C2CC2)CC1	> 41.4
Nc1cc(=O)[nH]c(SCC(=O)Nc2ccc(S(=O)(=O)N3CCCC3)cc2)n1	> 61.4
CCC(=O)Nc1ccc(/C=C(\C(C)=O)C(=O)c2ccccc2)cc1	> 48.2
CCCc1nc2sc3c(c2c(=O)[nH]1)CCCC3	1.3 (≈ 5.23 µM)
O=C(c1cc2ccccc2s1)N1CCN(c2ccccn2)CC1	8.9 (≈ 27.5 µM)
COCCC(=O)N1CCc2c([nH]c3ccccc23)C1C(C)(C)C (stereo not given)	> 47.2
Cc1ccc(S(=O)(=O)NCCC(=O)NNc2c(F)c(F)cc(F)c2F)cc1	> 60.8
COc1ccc(C(=O)N2CCCc3ccccc32)cc1OC	32.4 (≈ 109 µM)
CCOc1ccc(Cl)cc1S(=O)(=O)N1CCC(C(=O)NCc2ccco2)CC1	3.6 (≈ 8.43 µM)
Cc1ccc(NC(=O)C(C)OC(=O)CCC2CCCCC2)cc1 (stereo not given)	4.1 (≈ 12.9 µM)
